test system: Escherichia coli ATCC 25922; assay: 50% growth inhibitory concentration (IC50) determination, Iso-Sensitest broth dilution; format: cell-based; settings: Escherichia coli, ATCC25922, 16 h, strain Escherichia coli ATCC 25922; 10-point broth dilution, optical density at 600 nm over 16 h; read-out: Escherichia coli growth inhibition IC50
How it was run: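 10-point twofold Iso-Sensitest broth dilution (e.g. 50 to 0.097 μM final) with DMSO stocks, incubated at 35±2° C. Growth followed by OD 600 nm every 20 min over 16 h; IC50 derived from growth inhibition during logarithmic phase.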

IC50 [nM]	Compound
98.1	N#Cc1c(OCCN)ccc2c1CC(CNCCC1CN(c3ccc4c(n3)NC(=O)CO4)C(=O)O1)C2 (stereo not shown) [Example 128, 5-(2-aminoethoxy)-2-[[2-[2-oxo-3-(3-oxo-4H-pyrido[3,2-b][1,4]oxazin-6-yl)-1,3-oxazolidin-5-yl]ethylamino]methyl]-2,3-dihydro-1H-indene-4-carbonitrile; formic acid]
170	CS(=O)(=O)CCOc1cc(F)c2c(c1)CC(CNCCC1CN(c3cnc4c(n3)NC(=O)CO4)C(=O)O1)C2 (stereo not shown) [Example 353, 6-[5-[2-[[4-fluoro-6-(2-methylsulfonylethoxy)-2,3-dihydro-1H-inden-2-yl]methylamino]ethyl]-2-oxo-1,3-oxazolidin-3-yl]-4H-pyrazino[2,3-b][1,4]oxazin-3-one; formic acid]
< 97.7	CC(C)(N)COc1cc(F)c2c(c1F)CC(CNCCC1CN(c3cnc4c(n3)NC(=O)CO4)C(=O)O1)C2 (stereo not shown) [Example 411, 6-[5-[2-[[5-(2-amino-2-methylpropoxy)-4,7-difluoro-2,3-dihydro-1H-inden-2-yl]methylamino]ethyl]-2-oxo-1,3-oxazolidin-3-yl]-4H-pyrazino[2,3-b][1,4]oxazin-3-one; formic acid]
195	NC1(COc2cc(F)c3c(c2)CC(CNCCC2CN(c4ccc5c(n4)NC(=O)CO5)C(=O)O2)C3)COC1 (stereo not shown) [Example 162, 6-[5-[2-[[6-[(3-aminooxetan-3-yl)methoxy]-4-fluoro-2,3-dihydro-1H-inden-2-yl]methylamino]ethyl]-2-oxo-1,3-oxazolidin-3-yl]-4H-pyrido[3,2-b][1,4]oxazin-3-one; formic acid]
801	N#Cc1c(OCC2CCN2)ccc2c1CC(CNCCC1CN(c3ccc4c(n3)NC(=O)CO4)C(=O)O1)C2 (stereo not shown) [Example 137, 5-(azetidin-2-ylmethoxy)-2-[[2-[2-oxo-3-(3-oxo-4H-pyrido[3,2-b][1,4]oxazin-6-yl)-1,3-oxazolidin-5-yl]ethylamino]methyl]-2,3-dihydro-1H-indene-4-carbonitrile; formic acid]
250	O=C1COc2ncc(N3CC(CCNCC4Cc5cc(OC6COC6)cc(F)c5C4)OC3=O)nc2N1 (stereo not shown) [Example 323, 6-[5-[2-[[4-fluoro-6-(oxetan-3-yloxy)-2,3-dihydro-1H-inden-2-yl]methylamino]ethyl]-2-oxo-1,3-oxazolidin-3-yl]-4H-pyrazino [2,3-b] [1,4]oxazin-3-one]
196	CNc1cc2c(c(C)n1)CC(CNCCC1CN(c3ccc4c(n3)NC(=O)CO4)C(=O)O1)C2 (stereo not shown) [Example 420, 6-[5-[2-[[1-Methyl-3-(methylamino)-6,7-dihydro-5H-cyclopenta[c]pyridin-6-yl]methylamino]ethyl]-2-oxo-1,3-oxazolidin-3-yl]-4H-pyrido[3,2-b][1,4]oxazin-3-one]
< 97.7	Cc1ncc(F)c2c1C[C@H](CNCC[C@H]1CN(c3cnc4c(n3)NC(=O)CO4)C(=O)O1)C2 [Example 429]
< 97.7	O=C1COc2ncc(N3CC(CCNCC4Cc5ccnc(Cl)c5C4)OC3=O)nc2N1 (stereo not shown) [Example 38, 6-[5-[2-[(1-chloro-6,7-dihydro-5H-cyclopenta[c]pyridin-6-yl)methylamino]ethyl]-2-oxo-1,3-oxazolidin-3-yl]-4H-pyrazino[2,3-b][1,4]oxazin-3-one]
< 97.7	N#Cc1cccc2c1CC(CN1CC(C3CN(c4cnc5c(n4)NC(=O)CO5)C(=O)O3)C1)C2 (stereo not shown) [Example 76, 2-[[3-[2-oxo-3-(3-oxo-4H-pyrazino[2,3-b][1,4]oxazin-6-yl)-1,3-oxazolidin-5-yl]azetidin-1-yl]methyl]-2,3-dihydro-1H-indene-4-carbonitrile; formic acid]
885	Cc1ncc(F)c2c1CC(NC1CC(C3CN(c4cnc5c(n4)NC(=O)CO5)C(=O)O3)C1)C2 (single isomer, unassigned; isomer a) [Example 328, 6-[5-[3-[(4-fluoro-1-methyl-6,7-dihydro-5H-cyclopenta[c]pyridin-6-yl)amino]cyclobutyl]-2-oxo-1,3-oxazolidin-3-yl]-4H-pyrazino[2,3-b][1,4]oxazin-3-one, Isomer A]
234	CNC(=O)COc1cc2c(c(Cl)n1)CC(CNCCC1CN(c3ccc4c(n3)NC(=O)CO4)C(=O)O1)C2 (stereo not shown) [Example 66, 2-[[1-chloro-6-[[2-[2-oxo-3-(3-oxo-4H-pyrido[3,2-b][1,4]oxazin-6-yl)oxazolidin-5-yl]ethylamino]methyl]-6,7-dihydro-5H-cyclopenta[c]pyridin-3-yl]oxy]-N-methyl-acetamide]
< 97.7	NCCOc1ccc2c(c1Cl)CC(NCCCC1CN(c3ccc4c(n3)NC(=O)CO4)C(=O)O1)C2 (stereo not shown) [Example 118, 6-[5-[3-[[5-(2-aminoethoxy)-4-chloro-2,3-dihydro-1H-inden-2-yl]amino]propyl]-2-oxo-1,3-oxazolidin-3-yl]-4H-pyrido[3,2-b][1,4]oxazin-3-one; formic acid]
< 97.7	N#Cc1cc(OCc2cocn2)cc2c1CC(CNCCC1CN(c3cnc4c(n3)NC(=O)CO4)C(=O)O1)C2 (stereo not shown) [Example 386, 6-(1,3-oxazol-4-ylmethoxy)-2-[[2-[2-oxo-3-(3-oxo-4H-pyrazino[2,3-b][1,4]oxazin-6-yl)-1,3-oxazolidin-5-yl]ethylamino]methyl]-2,3-dihydro-1H-indene-4-carbonitrile]
88.4	Cc1nc(OCC2COCCN2)c(C)c2c1CC(CNCCC1CN(c3ccc4c(n3)NC(=O)CO4)C(=O)O1)C2 (stereo not shown) [Example 199, 6-[5-[2-[[1,4-dimethyl-3-(morpholin-3-ylmethoxy)-6,7-dihydro-5H-cyclopenta[c]pyridin-6-yl]methylamino]ethyl]-2-oxo-1,3-oxazolidin-3-yl]-4H-pyrido[3,2-b][1,4]oxazin-3-one]
311	CNC(=O)COc1nc(C)c2c(c1C)CC(CNCCC1CN(c3ccc4c(n3)NC(=O)CO4)C(=O)O1)C2 (stereo not shown) [Example 110, 2-[[1,4-dimethyl-6-[[2-[2-oxo-3-(3-oxo-4H-pyrido[3,2-b][1,4]oxazin-6-yl)-1,3-oxazolidin-5-yl]ethylamino]methyl]-6,7-dihydro-5H-cyclopenta[c]pyridin-3-yl]oxy]-N-methylacetamide]
248	NC1c2ccnc(Cl)c2CC1CNCCC1CN(c2ccc3c(n2)NC(=O)CO3)C(=O)O1 (stereo not drawn) [Example 123, 6-[2-oxo-5-[2-[[5,6-trans-5-amino-1-chloro-6,7-dihydro-5H-cyclopenta[c]pyridin-6-yl]methylamino]ethyl]-1,3-oxazolidin-3-yl]-4H-pyrido[3,2-b][1,4]oxazin-3-one; formic acid]
99.4	N#Cc1nccc2c1CC(CN[C@H]1C[C@@]3(CN(c4ccc5c(n4)NC(=O)CO5)C(=O)O3)C1)C2 (stereo partly drawn) [Example 104, 6-[[[2,4-trans-6-oxo-7-(3-oxo-4H-pyrido[3,2-b][1,4]oxazin-6-yl)-5-oxa-7-azaspiro[3.4]octan-2-yl]amino]methyl]-6.7-dihydro-5H-cyclopenta[c]pyridine-1-carbonitrile]
302	CNC(=O)COc1nc(C#N)c2c(c1C)CC(CNCCC1CN(c3ccc4c(n3)NC(=O)CO4)C(=O)O1)C2 (stereo not shown) [Example 221, 2-((1-Cyano-4-methyl-6-(((2-(2-oxo-3-(3-oxo-3,4-dihydro-2H-pyrido[3,2-b][1,4]oxazin-6-yl)oxazolidin-5-yl)ethyl)amino)methyl)-6,7-dihydro-5H-cyclopenta[c]pyridin-3-yl)oxy)-N-methylacetamide]
